Patent US10071095B2, “1,2,4-triazolo [4,3-A] pyridine derivatives and their use for the treatment of neurological and psychiatric disorders” (JANSSEN PHARMACEUTICALS, INC., priority 2009, dated 2018)

What was measured:
human mGluR2 receptor = target: T1, human mGluR2 receptor (Homo sapiens, UniProt Q14416); test: [35S]GTPγS binding assay, positive allosteric modulation (GTPγS-PAM) in presence of EC20 glutamate; format: biochemical; conditions: in presence of glutamate at EC20, average pEC50 if more experiments, ‡ means tested once; for EC50: read-out: GTPγS - hR2 PAM pEC50 (converted)
T1 construct: expressed in transfected cells; host or cells: CHO cells
Method in brief: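 Membranes from butyrate-stimulated CHO cells expressing human mGluR2 (7 μg protein) preincubated 30 min at 30°C with compound plus ~EC20 glutamate in HEPES pH 7.4, 100 mM NaCl, 3 mM MgCl2, 10 μM GDP, 10 μg/ml saponin. [35S]GTPγS (0.1 nM) incorporation over 30 min at 30°C measured by filtration and scintillation counting.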

[1] = system: PCP-induced hyperlocomotion in male NMRI mice; test: Phencyclidine (PCP)-induced hyperlocomotion in mice (video tracking); format: in vivo; conditions: for Mice ED50 (mg/kg) PCP-Inh., estimated ED50 (footnote a) / Mice ED50 (mg/kg) PCP-Inh.: inhibition of PCP-induced hyperlocomotion; for Mice ED50 (mg/kg) PCP-Inh., estimated ED50 (footnote a): estimated ED50 values (n = 3 per dose; 4-fold separation between doses); for Mice ED50 (mg/kg) PCP-Inh.: dose at which 50% of the tested animals show the effect
Experimental: Motor Activity (Video Tracking)
Apparatus and General Procedure
On the day of experiments, the mice were brought into the procedural room. They were housed individually and allowed to acclimate for at least a half hour prior to testing. Although the studies were conducted during the light cycle (from 8:00 to 16:00 h), the procedure room was only sparsely lit (3 to 30 LUX) to provide better contrast for the video tracking. Local lighting was used for the injection procedures. During each trial, an individual mouse was placed in an open field arena (grey PVC cylinder with a height of 40 cm and a diameter of 22.5 cm). Each arena was placed on an infrared LED (8×8 LEDs)-lit box (white PVC squared box; 40×40 cm^2; height 12.5 cm). Each mouse was placed in the center of the arena and allowed to explore freely for 30 min. After each trial, the arena was cleaned with a wet and subsequently with a dry cleaning cloth. An infrared sensitive tube camera and a white light source (in arena: 4-7 LUX) were mounted to the ceiling above the observation chamber to record and input activity to a computer. Animal behavior was recorded and analyzed using the Noldus Ethovision XT Video Tracking System (Version 3.1; Noldus, Wageningen, The Netherlands). The total distance traveled (cm) was calculated. Data were then exported to data management systems for further analysis and reporting.
Phencyclidine (PCP)-Induced Hyperlocomotion in Mice
Test compound or solvent was administered at a pre-defined time before measurement (standard: 30 min) to male NMRI mice that were challenged with phencyclidine (PCP; 5 mg/kg, s.c.) 30 min before measurement. Activity was measured for a period of 30 min.

T1 sequence (Q14416 19-872): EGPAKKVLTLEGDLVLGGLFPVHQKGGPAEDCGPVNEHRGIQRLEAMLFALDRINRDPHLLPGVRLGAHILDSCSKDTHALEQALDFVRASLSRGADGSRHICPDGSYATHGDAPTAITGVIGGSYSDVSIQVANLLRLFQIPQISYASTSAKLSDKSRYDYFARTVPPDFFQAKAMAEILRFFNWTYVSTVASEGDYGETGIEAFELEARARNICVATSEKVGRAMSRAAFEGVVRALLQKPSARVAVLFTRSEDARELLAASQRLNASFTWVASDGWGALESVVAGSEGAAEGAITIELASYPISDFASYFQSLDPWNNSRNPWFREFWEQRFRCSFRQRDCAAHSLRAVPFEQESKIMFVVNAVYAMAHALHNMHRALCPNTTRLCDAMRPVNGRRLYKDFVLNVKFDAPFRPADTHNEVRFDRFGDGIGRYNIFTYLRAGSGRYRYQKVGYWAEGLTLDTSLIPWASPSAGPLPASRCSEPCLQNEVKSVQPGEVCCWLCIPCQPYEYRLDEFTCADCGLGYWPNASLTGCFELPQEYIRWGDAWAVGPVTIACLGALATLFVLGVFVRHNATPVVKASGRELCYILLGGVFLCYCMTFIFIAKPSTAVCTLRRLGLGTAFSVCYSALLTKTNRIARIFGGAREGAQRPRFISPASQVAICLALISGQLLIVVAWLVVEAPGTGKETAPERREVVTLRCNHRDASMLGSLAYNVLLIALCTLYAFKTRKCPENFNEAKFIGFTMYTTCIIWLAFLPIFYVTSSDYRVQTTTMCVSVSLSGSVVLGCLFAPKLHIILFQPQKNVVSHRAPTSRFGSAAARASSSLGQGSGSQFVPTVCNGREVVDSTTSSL

In the case of Clc1c(CN2CCC(c3ccccc3)CC2)ccn2c(CC3CC3)nnc12 [compound 1, 8-Chloro-3-cyclopropylmethyl-7-[(4-phenyl-1-piperidinyl)methyl]-1,2,4-triazolo[4,3-a]pyridine], the EC50 (human mGluR2 receptor) is reported as 209 nM and the melting point is reported as 181.8 °C.
With Clc1c(N2CCC3(CC2)OCc2ccccc23)ccn2c(CC3CC3)nnc12 [compound 6, 1′-[8-Chloro-3-(cyclopropylmethyl)-1,2,4-triazolo[4,3-a]pyridin-7-yl]-spiro[isobenzofuran-1(3H),4′piperidine]] the EC50 (human mGluR2 receptor) was 129 nM and the melting point was 194.5 °C.
FC(F)(F)Cc1nnc2c(Cl)c(N3CCC4(CC3)OCc3ccccc34)ccn12 [compound 8] gave an EC50 (human mGluR2 receptor) of 97.7 nM and a melting point of over 300 °C.
In the case of N#Cc1c(N2CCC(c3ccccc3)CC2)ccn2c(CN3CCOCC3)nnc12 [compound 11], the EC50 (human mGluR2 receptor) is reported as 7590 nM and the melting point is reported as 300 °C.
FC(F)(F)Cc1nnc2c(Cl)c(N3CCC4(CC3)COc3ccccc34)ccn12 [compound 16, 1′-[8-Chloro-3-(2,2,2-trifluoroethyl)[1,2,4]triazolo[4,3-a]pyridin-7-yl]-spiro[1-benzofuran-3,4′-piperidine]] showed an EC50 (human mGluR2 receptor) of 178 nM and a melting point of 269.1 °C.
CC(C)OCc1nnc2c(C(F)(F)F)c(N3CCC(F)(c4ccccc4)CC3)ccn12 [compound 18, 7-(4-Fluoro-4-phenylpiperidin-1-yl)-3-[(1-methylethoxy)methyl]-8-(trifluoromethyl)[1,2,4]triazolo[4,3-a]pyridine] gave an EC50 (human mGluR2 receptor) of 69.2 nM and a melting point of 153.7 °C.
With Clc1c(N2CCC(c3ccccc3)CC2)ccn2c(CC3CC3)nnc12 [compound 26, 8-Chloro-3-cyclopropylmethyl-7-[4-phenyl-piperidin-1-yl]-[1,2,4]triazolo[4,3-a]pyridine] the “GTPγS - hR2 PAM pEC50” value (human mGluR2 receptor) was 6.99 and the melting point was 194.1 °C.
In the case of FC(F)(F)Cc1nnc2c(Cl)c(CN3CCC(c4ccccc4)CC3)ccn12 [compound 30], the “GTPγS - hR2 PAM pEC50” value (human mGluR2 receptor) is reported as 6.95, the “inhibition of PCP-induced hyperlocomotion in mice (in words)” value (“inhibition” for short) [1] is reported as “inhibited” and the “Mice ED50 (mg/kg) PCP-Inh., estimated ED50 (footnote a)” value [1] is reported as 5 ^a) mg/kg.
For N#Cc1c(N2CCN(C3CCC(C(F)(F)F)CC3)CC2)ccn2c(CC3CC3)nnc12 (stereo not drawn) [compound 44], the “GTPγS - hR2 PAM pEC50” value (human mGluR2 receptor) was 6.02 and the “Mice ED50 (mg/kg) PCP-Inh.” value [1] was over 40 mg/kg.
With CCc1nnc2c(C(F)(F)F)c(N3CCC(c4ccccc4)CC3)ccn12 [compound 66] the “GTPγS - hR2 PAM pEC50” value (human mGluR2 receptor) was 6.94, the “inhibition” value [1] was “inhibited” and the “Mice ED50 (mg/kg) PCP-Inh.” value [1] was 17.4 ^ mg/kg.
For FC(F)(F)c1c(N2CCC(c3ccccn3)CC2)ccn2c(CC3CC3)nnc12 [compound 78], the “GTPγS - hR2 PAM pEC50” value (human mGluR2 receptor) was 6.83 and the “Mice ED50 (mg/kg) PCP-Inh.” value [1] was ≥10^ mg/kg.
With CC1(C)CN(c2ccn3c(CC(F)(F)F)nnc3c2Cl)CCN1c1ccccc1 [compound 100, 8-Chloro-3-(2,2,2-trifluoroethyl)-7-(3,3-dimethyl-4-phenyl-piperazin-1-yl)-[1,2,4]triazolo[4,3-a]pyridine] the EC50 (human mGluR2 receptor) was 309 nM and the melting point was 260.2 °C.
FC(F)(F)c1c(N2CCN(c3ccccc3)C3(CC3)C2)ccn2c(CC3CC3)nnc12 [compound 121, 1′-[3-cyclopropylmethyl-8-(trifluoromethyl)[1,2,4]triazolo[4,3-a]pyridin-7-yl]-4-phenyl-4,7-diaza-spiro[2.5]octane] showed an EC50 (human mGluR2 receptor) of 234 nM and a melting point of 218.4 °C.
FC(F)(F)c1c(N2CCC(c3ccccc3)CC2)ccn2c(CCC3CC3)nnc12 [compound 123, 8-Trifluoromethyl-3-(2′-cyclopropyl)ethyl-7-(4-phenylpiperidin-1-yl)-[1,2,4]triazolo[4,3-a]pyridine] showed an EC50 (human mGluR2 receptor) of 40.7 nM and a melting point of 300 °C.
Molecule Cc1c(N2CCC(c3ccccc3)CC2)ccn2c(CC3CC3)nnc12 [compound 145, 3-Cyclopropylmethyl-8-methyl-7-(4-phenyl-piperidin-1-yl)-[1,2,4]triazolo[4,3-a]pyridine] has an EC50 (human mGluR2 receptor) of 417 nM and a melting point of over 300 °C.
In the case of Fc1ccc(CN2CCCC3(C2)CN(c2ccn4c(CC5CC5)nnc4c2C(F)(F)F)C3)c(F)c1 [compound 232], the “GTPγS - hR2 PAM pEC50” value (human mGluR2 receptor) is reported as 7.64.
In the case of CC1(C)CN(c2ccn3c(CC4CC4)nnc3c2C(F)(F)F)CCN1c1cc(F)cc(F)c1 [compound 233], the “GTPγS - hR2 PAM pEC50” value (human mGluR2 receptor) is reported as 7.23.
For FC1(F)CCN(C2CCN(c3ccn4c(CC5CC5)nnc4c3C(F)(F)F)CC2)CC1 [compound 238], the “GTPγS - hR2 PAM pEC50” value (human mGluR2 receptor) was 6.08‡.
For FC1(F)CCN(C2CCN(c3ccn4c(CC5CC5)nnc4c3Cl)CC2)CC1 [compound 242], the “GTPγS - hR2 PAM pEC50” value (human mGluR2 receptor) was 5.86.
FC(F)(F)c1c(CN2CCC(F)(c3ccccc3)CC2)ccn2c(CC3CC3)nnc12 [compound 250, 3-(Cyclopropylmethyl)-7-[(4-fluoro-4-phenyl-1-piperidinyl)methyl]-8-(trifluoromethyl)-1,2,4-triazolo[4,3-a]pyridine] gave an ED50 ([1]; Mus musculus, read-out: Mice ED50 (mg/kg) PCP-Inh.) of over 10 mg/kg.
With Clc1c(N2CCC(n3ccc4ccccc43)CC2)ccn2c(CC3CC3)nnc12 [compound 259] the “GTPγS - hR2 PAM pEC50” value (human mGluR2 receptor) was 6.67‡.
With FC(F)(F)c1c(N2CCC3(C=Cc4ccccc43)CC2)ccn2c(CC3CC3)nnc12 [compound 260] the “GTPγS - hR2 PAM pEC50” value (human mGluR2 receptor) was 7.47.
In the case of FC(F)(F)c1c(N2C[C@@H]3[C@H](C2)[C@H]3c2ccccc2)ccn2c(CC3CC3)nnc12 [compound 266], the “GTPγS - hR2 PAM pEC50” value (human mGluR2 receptor) is reported as 7.88‡.
In the case of Fc1ccccc1C1CCN(c2ccn3c(CC4CC4)nnc3c2C(F)(F)F)CC1 [compound 274], the “GTPγS - hR2 PAM pEC50” value (human mGluR2 receptor) is reported as 7.83‡.
In the case of COc1cc(F)ccc1C1CCN(c2ccn3c(CC4CC4)nnc3c2C(F)(F)F)CC1 [compound 277], the “GTPγS - hR2 PAM pEC50” value (human mGluR2 receptor) is reported as 7.72.
With Fc1ccc(COC2CCN(c3ccn4c(CC5CC5)nnc4c3C(F)(F)F)CC2)c(F)c1 [compound 279] the “GTPγS - hR2 PAM pEC50” value (human mGluR2 receptor) was 7.24‡.
In the case of Fc1cc(CN2CCN(c3ccn4c(CC5CC5)nnc4c3Cl)CC2)cc(C(F)(F)F)c1 [compound 280], the “GTPγS - hR2 PAM pEC50” value (human mGluR2 receptor) is reported as 5.95‡.
With FC(F)(F)c1c(N2CCC(c3ccccc3Cl)CC2)ccn2c(CC3CC3)nnc12 [compound 287] the “GTPγS - hR2 PAM pEC50” value (human mGluR2 receptor) was 7.87‡.
In the case of Fc1cccc(F)c1C1CCN(c2ccn3c(CC4CC4)nnc3c2Cl)CC1 [compound 300], the “GTPγS - hR2 PAM pEC50” value (human mGluR2 receptor) is reported as 7.24, the “inhibition” value [1] is reported as “inhibited” and the “Mice ED50 (mg/kg) PCP-Inh., estimated ED50 (footnote a)” value [1] is reported as 12.6 ^a) mg/kg.
In the case of COc1cccc(F)c1N1CCN(c2ccn3c(CC4CC4)nnc3c2C(F)(F)F)CC1 [compound 301], the “GTPγS - hR2 PAM pEC50” value (human mGluR2 receptor) is reported as 7.45‡.
For COc1cccc(F)c1N1CCN(c2ccn3c(CC4CC4)nnc3c2Cl)CC1 [compound 302], the “GTPγS - hR2 PAM pEC50” value (human mGluR2 receptor) was 6.55.
In the case of FC(F)(F)c1cc(CN2CCN(c3ccn4c(CC5CC5)nnc4c3Cl)CC2)cc(C(F)(F)F)c1 [compound 304], the “GTPγS - hR2 PAM pEC50” value (human mGluR2 receptor) is reported as 6.12.
With Fc1ccc(OC2CCN(c3ccn4c(CC5CC5)nnc4c3C(F)(F)F)CC2)c(F)c1 [compound 315] the “GTPγS - hR2 PAM pEC50” value (human mGluR2 receptor) was 7.24.
With CCCCc1nnc2c(C(F)(F)F)c(N3CCC(c4ccc(F)cc4F)CC3)ccn12 [compound 327] the “GTPγS - hR2 PAM pEC50” value (human mGluR2 receptor) was 7.71‡.
With CCOCc1nnc2c(C(F)(F)F)c(N3CCC(c4ccc(F)cc4F)CC3)ccn12.Cl [compound 339] the “GTPγS - hR2 PAM pEC50” value (human mGluR2 receptor) was 7.15‡.
In the case of Fc1cc(F)cc(N2CCN(c3ccn4c(CC5CC5)nnc4c3C(F)(F)F)CC2)c1 [compound 351], the “GTPγS - hR2 PAM pEC50” value (human mGluR2 receptor) is reported as 7.46‡.
For Fc1cnc(N2CCN(c3ccn4c(CC5CC5)nnc4c3C(F)(F)F)CC2)c(F)c1 [compound 359], the “GTPγS - hR2 PAM pEC50” value (human mGluR2 receptor) was 7‡.
For Fc1ccc(N2CCN(c3ccn4c(CC5CC5)nnc4c3C(F)(F)F)CC2)nc1 [compound 360], the “GTPγS - hR2 PAM pEC50” value (human mGluR2 receptor) was 6.44‡.
